Experiment [1] concerns the target T1, OCTN1 (Homo sapiens, UniProt Q9H015).
T1 sequence (Q9H015 1-551): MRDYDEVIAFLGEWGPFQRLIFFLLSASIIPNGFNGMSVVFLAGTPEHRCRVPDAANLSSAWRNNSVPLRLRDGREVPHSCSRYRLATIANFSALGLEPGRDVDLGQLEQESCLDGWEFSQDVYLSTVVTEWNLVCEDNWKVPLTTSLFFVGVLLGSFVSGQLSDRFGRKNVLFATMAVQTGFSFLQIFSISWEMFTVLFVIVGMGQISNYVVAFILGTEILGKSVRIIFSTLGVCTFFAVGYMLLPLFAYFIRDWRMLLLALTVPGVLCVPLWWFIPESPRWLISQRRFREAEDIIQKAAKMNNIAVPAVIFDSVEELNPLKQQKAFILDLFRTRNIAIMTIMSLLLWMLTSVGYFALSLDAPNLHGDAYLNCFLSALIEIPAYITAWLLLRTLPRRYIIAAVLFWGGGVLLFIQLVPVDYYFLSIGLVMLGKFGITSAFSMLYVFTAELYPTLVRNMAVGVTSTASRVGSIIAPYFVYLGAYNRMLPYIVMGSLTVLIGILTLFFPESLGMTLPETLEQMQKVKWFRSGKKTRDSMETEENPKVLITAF
As to the kind of experiment: uptake. The experiment is classed as cell-based.

In experiment [2] the target is T1, OCTN1.
The target of experiment [3] is T1, OCTN1. As to the kind of experiment: uptake in OCTN1-transfected HEK293 cells. The format is cell-based.

Regarding `Nc1nc(F)nc2c1ncn2[C@@H]1O[C@H](CO)[C@@H](O)[C@@H]1O` [fludarabine], on OCTN1 [1], the “uptake (1 μM, 5 min) in OCTN1-transfected HEK293 cells” value (“uptake (1 μM, 5 min)” for short) is “adenosine analogs (eg, clofarabine and fludarabine), and guanosine analogs (eg, ribavirin)”. In the case of `CC[N+](CC)(CC)CC` [tetraethylammonium], the “carbon 14-labeled TEA uptake in OCTN1-transfected HEK293 cells (transport effici)” value at OCTN1 [2] was found to be 1.1 ± 0.12 µL/min/mg. Turning to `Nc1nc(Cl)nc2c1ncn2[C@@H]1O[C@H](CO)[C@@H](O)[C@@H]1F` [clofarabine], the “uptake (1 μM, 5 min)” value at OCTN1 [1] is “adenosine analogs (eg, clofarabine and fludarabine), and guanosine analogs (eg, ribavirin)”. For the compound `C[N+](C)(C)[C@@H](Cc1c[nH]c(=S)[nH]1)C(=O)[O-]` [ergothioneine], on OCTN1 [3], the “uptake in OCTN1-transfected HEK293 cells (transport efficiency)” value came out at 62 ± 8 µL/min/mg. As to `NC(=O)c1ncn([C@@H]2O[C@H](CO)[C@@H](O)[C@H]2O)n1` [ribavirin], the “uptake (1 μM, 5 min)” value on OCTN1 [1] was “adenosine analogs (eg, clofarabine and fludarabine), and guanosine analogs (eg, ribavirin)”.

Source of the values: PMC5419029 (Cancer research, 2017).
